In brackets after ≈: the same amount, converted by molar mass. Read-outs that look alike come from different tables or passages of the source.
How the values were obtained:
A. baumannii CDC-0045 = experiment: microbe, parasite or virus in culture; assay type: cell-based; details: Acinetobacter baumannii, CDC0045, read-out: MIC, A. baumannii CDC-0045
P. aeruginosa CDC-0090 = experiment: microbe, parasite or virus in culture; assay type: cell-based; details: Pseudomonas aeruginosa, CDC0090, read-out: Minimum inhibitory concentration, P. aeruginosa CDC-0090
N. gonorrhoeae WHO L = experiment: Liquid broth MIC in Fastidious broth; details: Neisseria gonorrhoeae
Description: Liquid broth-based assays were used for antibacterial testing of PBP inhibitors in Neisseria gonorrhoeae. Briefly, cryo-preserved bacterial cultures of clinical strains were streaked for isolation on Chocolate Agar (72 g/L (2×) GC Agar Base (BD #228950) and 2% (2×) Hemoglobin was autoclaved at 121° C. for 20 minutes to sterilize. Once cooled to ˜50° C. the 2×GC Agar Base and 2× Hemoglobin solutions are combined and 1% IsoVitaleX Enrichment (BD #211876) was added to the solution). Strains were incubated at 36° C. and 5% CO2 to allow growth of colonies, 24 hours before inoculum preparation. 2-fold serial dilutions of test compounds were conducted in a 96 well plate with a final volume of 75 μL per well at 2-fold the final desired concentration in Fastidious broth (Remel #R07664). For preparation of assay inoculum, a direct suspension was prepared by aseptically swabbing 10-15 colonies from agar plates into culture tubes containing 2 mL of fresh sterile saline. After the dilution plates were set up, direct suspensions were then diluted in a cuvette containing sterile saline and the optical density was measured at 600 nm. Inocula were diluted such that 75 μL of this culture in Fastidious broth results in a starting bacterial concentration of 5×10^5 CFU/mL when added to the dilution plates. The plates were incubated for ˜24 hours at 36° C. and 5% CO2.

N. gonorrhoeae WHO Q = experiment: Liquid broth MIC in Fastidious broth; details: Neisseria gonorrhoeae
N. gonorrhoeae WHO K = experiment: Liquid broth MIC in Fastidious broth; details: Neisseria gonorrhoeae
[1] = test system: B. thailandensis ATCC 700388; experiment: microbe, parasite or virus in culture; assay type: cell-based; details: Burkholderia thailandensis, ATCC700388, read-out: Minimum inhibitory concentration (MIC), B. thailandensis ATCC 700388
[2] = test system: B. humptydooensis ATCC BAA-2767; experiment: microbe, parasite or virus in culture; assay type: cell-based; details: Burkholderia humptydooensis, ATCCBAA2767, read-out: Minimum inhibitory concentration (MIC), B. humptydooensis ATCC BAA-2767
[3] = target: T1, PBP3 from Escherichia coli (K-12) (Escherichia coli, UniProt P0AD68); experiment: Bocillin-FL fluorescence polarization competition binding, E. coli PBP3
T1 construct: made in house
T1 sequence (P0AD68 1-577): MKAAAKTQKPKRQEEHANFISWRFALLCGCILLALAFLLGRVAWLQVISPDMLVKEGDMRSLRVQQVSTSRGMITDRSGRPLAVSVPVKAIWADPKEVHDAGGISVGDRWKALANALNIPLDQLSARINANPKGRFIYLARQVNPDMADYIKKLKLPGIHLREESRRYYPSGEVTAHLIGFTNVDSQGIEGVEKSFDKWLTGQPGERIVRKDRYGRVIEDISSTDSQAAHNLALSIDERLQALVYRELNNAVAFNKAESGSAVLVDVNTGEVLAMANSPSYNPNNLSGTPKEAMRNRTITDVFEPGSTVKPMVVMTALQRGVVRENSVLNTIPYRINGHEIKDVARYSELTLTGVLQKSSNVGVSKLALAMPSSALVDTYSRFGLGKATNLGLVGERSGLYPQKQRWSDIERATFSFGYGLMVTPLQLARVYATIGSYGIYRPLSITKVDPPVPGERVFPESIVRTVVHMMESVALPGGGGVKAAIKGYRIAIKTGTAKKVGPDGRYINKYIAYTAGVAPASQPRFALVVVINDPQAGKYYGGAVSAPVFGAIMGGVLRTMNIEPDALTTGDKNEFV
Outline: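 Purified PBPs pre-incubated with inhibitor (E. coli PBP3 1.5 μM, 30 min; P. aeruginosa PBP3 0.75 μM, A. baumannii PBP1a 1 μM and PBP3 0.2 μM, 15 min), then Bocillin-FL 0.1 μM (0.05 μM for PBP1a) added; FP read up to 60 min. EC50 = concentration halving bound Bocillin-FL.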

[4] = test system: P. aeruginosa (ΔmexAB-oprM); experiment: Broth microdilution MIC in iron-depleted CAMHB (IDM); assay type: cell-based; details: Pseudomonas aeruginosa; iron-depleted CAMHB (IDM); […]; read-out: Minimum inhibitory concentration, P. aeruginosa ΔmexAB-oprM
P. aeruginosa CDC-0054 = experiment: microbe, parasite or virus in culture; assay type: cell-based; details: Pseudomonas aeruginosa, CDC0054, read-out: Minimum inhibitory concentration, P. aeruginosa CDC-0054
[5] = read-out: Minimum Inhibitory Concentration (MIC), N. gonorrhoeae WHO L
[6] = read-out: Minimum Inhibitory Concentration (MIC), N. gonorrhoeae WHO Q
[7] = read-out: Minimum Inhibitory Concentration (MIC), N. gonorrhoeae WHO K
[8] = read-out: Minimum Inhibitory Concentration, WHO L
[9] = read-out: Minimum Inhibitory Concentration, WHO Q
[10] = read-out: Minimum Inhibitory Concentration, WHO K

Compound	MIC (A. baumannii CDC-0045) [µg/mL]	MIC (P. aeruginosa CDC-0090) [µg/mL]	MIC (N. gonorrhoeae WHO L; [5]) [µg/mL]	MIC (N. gonorrhoeae WHO Q; [6]) [µg/mL]	MIC (N. gonorrhoeae WHO K; [7]) [µg/mL]	MIC [1] [µg/mL]	MIC [2] [µg/mL]	EC50 [3] [µM]	MIC [4] [µg/mL]	MIC (P. aeruginosa CDC-0054) [µg/mL]	MIC (N. gonorrhoeae WHO L; [8]) [µg/mL]	MIC (N. gonorrhoeae WHO Q; [9]) [µg/mL]	MIC (N. gonorrhoeae WHO K; [10]) [µg/mL]
O=C(CN1CCN(C(=O)N[C@@H](C(=O)N[C@H]2Cc3ccc(F)c(C(=O)O)c3OB2O)c2cc(F)c(O)c(O)c2Cl)C(=O)C1=O)NCc1ccncc1 [Example 239, (R)-3-((R)-2-(2-chloro-5-fluoro-3,4-dihydroxyphenyl)-2-(2,3-dioxo-4-(2-oxo-2-((pyridin-4-ylmethyl)amino)ethyl)piperazine-1-carboxamido)acetamido)-7-fluoro-2-hydroxy-3,4-dihydro-2H-benzo[e][1,2]oxaborinine-8-carboxylic acid]	< 1	2 to 4 (≈ 2.74 to 5.47 µM)	> 64	> 64	> 64	8 to 16 (≈ 10.9 to 21.9 µM)	32 to 64 (≈ 43.8 to 87.6 µM)	< 10	< 1	2 to 4 (≈ 2.74 to 5.47 µM)	–	–	–
O=C(CN1CCN(C(=O)NC(C(=O)N[C@H]2Cc3ccc(F)c(C(=O)O)c3OB2O)c2cc(F)c(O)c(O)c2Cl)C(=O)C1=O)NCc1cccnc1 (stereo partly drawn) [Example 240, (3R)-3-(2-(2-chloro-5-fluoro-3,4-dihydroxyphenyl)-2-(2,3-dioxo-4-(2-oxo-2-((pyridin-3-ylmethyl)amino)ethyl)piperazine-1-carboxamido)acetamido)-7-fluoro-2-hydroxy-3,4-dihydro-2H-benzo[e][1,2]oxaborinine-8-carboxylic acid]	2 to 4 (≈ 2.74 to 5.47 µM)	2 to 4 (≈ 2.74 to 5.47 µM)	> 64	16 to 32 (≈ 21.9 to 43.8 µM)	> 64	2 to 4 (≈ 2.74 to 5.47 µM)	2 to 4 (≈ 2.74 to 5.47 µM)	< 10	< 1	< 1	–	–	–
O=C(CN1CCN(C(=O)N[C@@H](C(=O)N[C@H]2Cc3ccc(F)c(C(=O)O)c3OB2O)c2cc(F)c(O)c(O)c2Cl)C(=O)C1=O)NCc1nccs1 [Example 241, (R)-3-((R)-2-(2-chloro-5-fluoro-3,4-dihydroxyphenyl)-2-(2,3-dioxo-4-(2-oxo-2-((thiazol-2-ylmethyl)amino)ethyl)piperazine-1-carboxamido)acetamido)-7-fluoro-2-hydroxy-3,4-dihydro-2H-benzo[e][1,2]oxaborinine-8-carboxylic acid]	2 to 4 (≈ 2.71 to 5.43 µM)	2 to 4 (≈ 2.71 to 5.43 µM)	> 64	16 to 32 (≈ 21.7 to 43.4 µM)	16 to 32 (≈ 21.7 to 43.4 µM)	2 to 4 (≈ 2.71 to 5.43 µM)	2 to 4 (≈ 2.71 to 5.43 µM)	< 10	< 1	< 1	–	–	–
O=C(NCCN1CCN(C(=O)NC(C(=O)N[C@H]2Cc3ccc(F)c(C(=O)O)c3OB2O)c2cc(F)c(O)c(O)c2Cl)C1=O)c1ccccc1 (stereo partly drawn) [Example 242, (3R)-3-(2-(3-(2-benzamidoethyl)-2-oxoimidazolidine-1-carboxamido)-2-(2-chloro-5-fluoro-3,4-dihydroxyphenyl)acetamido)-7-fluoro-2-hydroxy-3,4-dihydro-2H-benzo[e][1,2]oxaborinine-8-carboxylic acid]	< 1	< 1	> 64	> 64	> 64	2 to 4 (≈ 2.85 to 5.7 µM)	8 to 16 (≈ 11.4 to 22.8 µM)	< 10	< 1	2 to 4 (≈ 2.85 to 5.7 µM)	–	–	–
O=C(NCCN1CCN(C(=O)NC(C(=O)N[C@H]2Cc3ccc(F)c(C(=O)O)c3OB2O)c2cc(F)c(O)c(O)c2Cl)C1=O)c1ccc(O)cc1 (stereo partly drawn) [Example 243, (3R)-3-(2-(2-chloro-5-fluoro-3,4-dihydroxyphenyl)-2-(3-(2-(4-hydroxybenzamido)ethyl)-2-oxoimidazolidine-1-carboxamido)acetamido)-7-fluoro-2-hydroxy-3,4-dihydro-2H-benzo[e][1,2]oxaborinine-8-carboxylic acid]	< 1	< 1	> 64	> 64	> 64	2 to 4 (≈ 2.79 to 5.57 µM)	2 to 4 (≈ 2.79 to 5.57 µM)	10 to 50	< 1	2 to 4 (≈ 2.79 to 5.57 µM)	–	–	–
O=C(NCCN1CCN(C(=O)NC(C(=O)N[C@H]2Cc3ccc(F)c(C(=O)O)c3OB2O)c2cc(F)c(O)c(O)c2Cl)C1=O)c1cccc(O)c1 (stereo partly drawn) [Example 244, (3R)-3-(2-(2-chloro-5-fluoro-3,4-dihydroxyphenyl)-2-(3-(2-(3-hydroxybenzamido)ethyl)-2-oxoimidazolidine-1-carboxamido)acetamido)-7-fluoro-2-hydroxy-3,4-dihydro-2H-benzo[e][1,2]oxaborinine-8-carboxylic acid]	2 to 4 (≈ 2.79 to 5.57 µM)	< 1	> 64	> 64	> 64	> 128	2 to 4 (≈ 2.79 to 5.57 µM)	10 to 50	< 1	2 to 4 (≈ 2.79 to 5.57 µM)	–	–	–
O=C(NCCN1CCN(C(=O)NC(C(=O)N[C@H]2Cc3ccc(F)c(C(=O)O)c3OB2O)c2cc(F)c(O)c(O)c2Cl)C1=O)c1ccncc1 (stereo partly drawn) [Example 245, (3R)-3-(2-(2-chloro-5-fluoro-3,4-dihydroxyphenyl)-2-(3-(2-(isonicotinamido)ethyl)-2-oxoimidazolidine-1-carboxamido)acetamido)-7-fluoro-2-hydroxy-3,4-dihydro-2H-benzo[e][1,2]oxaborinine-8-carboxylic acid]	< 1	< 1	> 64	> 64	> 64	2 to 4 (≈ 2.85 to 5.69 µM)	< 1	10 to 50	< 1	2 to 4 (≈ 2.85 to 5.69 µM)	–	–	–
O=C(NCCN1CCN(C(=O)NC(C(=O)N[C@H]2Cc3ccc(F)c(C(=O)O)c3OB2O)c2cc(F)c(O)c(O)c2Cl)C1=O)c1cccnc1 (stereo partly drawn) [Example 246, (3R)-3-(2-(2-chloro-5-fluoro-3,4-dihydroxyphenyl)-2-(3-(2-(nicotinamido)ethyl)-2-oxoimidazolidine-1-carboxamido)acetamido)-7-fluoro-2-hydroxy-3,4-dihydro-2H-benzo[e][1,2]oxaborinine-8-carboxylic acid]	< 1	2 to 4 (≈ 2.85 to 5.69 µM)	–	–	–	2 to 4 (≈ 2.85 to 5.69 µM)	2 to 4 (≈ 2.85 to 5.69 µM)	10 to 50	< 1	2 to 4 (≈ 2.85 to 5.69 µM)	> 64	> 64	> 64
O=C(NCCN1CCN(C(=O)NC(C(=O)N[C@H]2Cc3ccc(F)c(C(=O)O)c3OB2O)c2cc(F)c(O)c(O)c2Cl)C1=O)c1nccs1 (stereo partly drawn) [Example 247, (3R)-3-(2-(2-chloro-5-fluoro-3,4-dihydroxyphenyl)-2-(2-oxo-3-(2-(thiazole-2-carboxamido)ethyl)imidazolidine-1-carboxamido)acetamido)-7-fluoro-2-hydroxy-3,4-dihydro-2H-benzo[e][1,2]oxaborinine-8-carboxylic acid]	< 1	2 to 4 (≈ 2.82 to 5.64 µM)	–	–	–	< 1	< 1	10 to 50	< 1	2 to 4 (≈ 2.82 to 5.64 µM)	> 64	16 to 32 (≈ 22.6 to 45.1 µM)	> 64
O=C(O)c1c(F)ccc2c1OB(O)[C@@H](NC(=O)C(NC(=O)N1CCN(CCNC(=O)[C@@H]3CCCN3)C1=O)c1cc(F)c(O)c(O)c1Cl)C2 (stereo partly drawn) [Example 248, (3R)-3-(2-(2-chloro-5-fluoro-3,4-dihydroxyphenyl)-2-(2-oxo-3-(2-((S)-pyrrolidine-2-carboxamido)ethyl)imidazolidine-1-carboxamido)acetamido)-7-fluoro-2-hydroxy-3,4-dihydro-2H-benzo[e][1,2]oxaborinine-8-carboxylic acid]	< 1	8 to 16 (≈ 11.5 to 23 µM)	–	–	–	2 to 4 (≈ 2.88 to 5.76 µM)	< 1	10 to 50	< 1	2 to 4 (≈ 2.88 to 5.76 µM)	> 64	16 to 32 (≈ 23 to 46.1 µM)	16 to 32 (≈ 23 to 46.1 µM)
O=C(NCCN1CCN(C(=O)NC(C(=O)N[C@H]2Cc3ccc(F)c(C(=O)O)c3OB2O)c2cc(F)c(O)c(O)c2Cl)C1=O)Nc1cccc(O)c1 (stereo partly drawn) [Example 249, (3R)-3-(2-(2-chloro-5-fluoro-3,4-dihydroxyphenyl)-2-(3-(2-(3-(3-hydroxyphenyl)ureido)ethyl)-2-oxoimidazolidine-1-carboxamido)acetamido)-7-fluoro-2-hydroxy-3,4-dihydro-2H-benzo[e][1,2]oxaborinine-8-carboxylic acid]	< 1	< 1	–	–	–	2 to 4 (≈ 2.73 to 5.46 µM)	< 1	< 10	< 1	2 to 4 (≈ 2.73 to 5.46 µM)	> 64	> 64	> 64

Reference: patent US20240270762A1, “PENICILLIN-BINDING PROTEIN INHIBITORS” (priority 2021, published 2024)
